Test results as given in patent US20080021002A1, “VITAMIN D COMPOUNDS USED TO STABILIZE KIDNEY TRANSPLANTS” (priority 2000, published 2008).

System: Smad 3 mRNA
Assay: Semi-quantitative RT-PCR of renal grafts, Smad 3 mRNA
Format: in vivo, rat
Conditions: vs controls
Description: Semi-quantitative Reverse transcription polymerace chain reaction (RT-PCR): Following graft harvest a […] containing both cortex and medulla was snap frozen in liquid nitrogen. Semi-quantitative RT-PCR was performed as described. Little et al. Transplant Int. 12:393-401, 1999. Briefly, samples were homogenized then total RNA extracted with RNAzol B (Tel Test, Inc., Friendswood, Tex.) and reversed transcribed to cDNA according to manufacturer=s instructions (Superscript, Gibco BRL). PCR was performed over the linear range of amplification for both the gene of interest, e.g. TGFβ-1, and the ribosomal protein S26 as a control housekeeping gene. PCR conditions were chosen such that both products were amplified with similar efficiency. The following cycle parameters were employed: denaturing, 94° C. for 60 seconds; annealing, 61° C. for 60 seconds; and extension, 72° C. for 60 seconds. The amount of product was quantified using a phosphoimager (Storm 80) following gel electrophoresis and Vista green detection.

## C=C1/C(=C\C=C2/CCC[C@]3(C)[C@@H]([C@H](C)CCCC(C)(C)O)CC[C@@H]23)C[C@@H](O)C[C@@H]1O [calcitriol, 1,25-dihydroxyvitamin D3]
  Smad 3 mRNA levels: no significant change
